Laboratory results published in US9320722B2, “Regulators of aldehyde dehydrogenase ALDH3A1 and related therapeutic methods” (Indiana University Research and Technology Corporation, priority 2013, dated 2016).

Biological target: T1, ALDH3A1 (Homo sapiens (Human), UniProt P30838)
Assay: not given
Settings: read-out: ALDH3A1 IC50 (micromolar); Table 4(B), hits from ChemBridge screen

T1 sequence (P30838 whole entry): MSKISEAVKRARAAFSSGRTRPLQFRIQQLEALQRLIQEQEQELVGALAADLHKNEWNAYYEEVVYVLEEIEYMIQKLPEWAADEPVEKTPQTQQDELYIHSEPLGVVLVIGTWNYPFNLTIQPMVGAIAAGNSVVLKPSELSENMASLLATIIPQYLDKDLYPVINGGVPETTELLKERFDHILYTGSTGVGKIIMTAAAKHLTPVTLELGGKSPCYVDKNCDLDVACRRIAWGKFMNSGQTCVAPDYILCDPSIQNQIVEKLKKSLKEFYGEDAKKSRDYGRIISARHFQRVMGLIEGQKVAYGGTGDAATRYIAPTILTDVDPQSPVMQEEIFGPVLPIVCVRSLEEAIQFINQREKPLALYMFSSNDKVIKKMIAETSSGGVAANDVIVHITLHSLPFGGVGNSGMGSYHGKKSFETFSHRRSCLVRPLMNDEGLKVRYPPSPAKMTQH

SMILES	IC50
O=[N+](O)c1ccccc1CNc1ccc(F)c(F)c1 [CB2]	5.2 µM
CCN(CC)CCC(=O)c1ccc2c(c1)OCO2 [CB12]	3.2 µM
O=C(CCN1CCOCC1)c1ccc2c(c1)OCCO2 [CB13]	11.7 µM

Biological target: T1, ALDH3A1
Assay: biochemical
Settings: read-out: % activity left after treating with 10 micromolar inhibitor ALDH3A1
Experimental: The enzymatic activity of ALDH1A1, ALDH2 and ALDH3A1 were measured as described previously^[30,34,37,39].
All reactions were initiated by the addition of the aldehyde substrate. The inhibition curves were fit to the Logistic four parameter IC50 equation using the SigmaPlot (v11, StatSys). We characterized the mode of inhibition using steady-state kinetics through co-variation of inhibitor and substrate concentrations. The steady state kinetic measurements were performed in 100 mM Na2HPO4 buffer, pH 7.5. […] In all cases—including the control reactions lacking inhibitors, the final reaction mixture contained 2% (v/v) DMSO. The reaction was initiated by addition of substrate and the initial rate of product formation was determined on a Beckman DU-640. All data were fit to the non-linear velocity expressions for competitive, non-competitive, mixed-type non-competitive and uncompetitive inhibition^[40]. Appropriateness of the inhibition model was determined through analysis of goodness-of-fit and the residuals of those fits. Lineweaver-Burke plots were created using SigmaPlot (v11, StatSys) to visualize the inhibition patterns. All data represent the average of three independent experiments utilizing triplicate assays at each concentration point.
ALDH1A1, ALDH2 and ALDH3A1 activities were measured as described earlier^33,44,45. […] Reaction was initiated by the addition of the aldehyde substrate. […] The inhibition curves were fit to the Logistic four parameter IC50 equation using the SigmaPlot (v11, StatSys). Steady state kinetic experiments were performed by co-varying inhibitor and substrate concentrations. The steady state kinetic measurements were performed in 100 mM Na2HPO4 buffer, pH 7.5.

SMILES	inhibition at 10 µM
Cc1cc(OCC(=O)O)c([N+](=O)O)cc1Cl [CB3]	55%
Cc1cc(C2CNc3ccccc32)oc(=O)c1 (stereo not drawn) [CB4]	60%
Nc1ccc(-c2cc(C(=O)O)c3ccccc3n2)cc1 [CB5]	34%
N#CSC1CN=C(NC2CCCCC2)S1 (stereo not drawn) [CB6]	6%
N#CC(Cc1ccc(S(=O)(=O)c2ccc(Cl)cc2)cc1)c1nc2ccccc2[nH]1 (stereo not drawn) [CB10]	58%
OCCCn1c(-c2ccc(Cl)cc2)cn2c3ccccc3nc12 [CB11]	61%
O=[N+]([O-])c1ccc(N2CCCC2)c(F)c1 [CB14]	47%
CCNC(=O)CC1Nc2cc(C)c(C)cc2NC1=O (stereo not drawn) [CB16]	50%
CN(CC(=O)[O-])c1nc2ccc([N+](=O)O)cc2s1 [CB21]	58%
O=C(CSc1ccccc1)NCc1ccco1 [CB23]	65%
CCOc1cc(/C=C/[N+](=O)O)ccc1O [CB26]	45%
c1ccc(CNc2nc(-c3ccccn3)cs2)cc1 [CB27]	43%
O=C(O)CCc1ccc(-c2ccc(F)cc2)o1 [CB32]	36%
C=CCOc1ccc(/C=C/[N+](=O)O)cc1OC [CB35]	46%
C#CCOc1ccc(/C=C/[N+](=O)O)cc1 [CB36]	30%
Cc1ccc(/C=C/[N+](=O)O)cc1Br [CB37]	30%
COc1ccc(/C=C/[N+](=O)O)cc1Br [CB38]	40%
Cc1ccc(-c2ccc(/C=C/[N+](=O)O)o2)c(Br)c1 [CB39]	32%
COc1ccc(/C=C/[N+](=O)O)cc1I [CB40]	30%
CN(C)c1ccc(/C=C/[N+](=O)O)cc1Br [CB41]	45%
C#CCOc1c(Cl)cc(/C=C/[N+](=O)O)cc1OC [CB42]	46%
